The numbers were not newly measured in US8168241B2, “Performance-enhancing dietary supplement” (Reliv International, Inc., priority 1998, dated 2012), which cites them from elsewhere.

For data set [1] the following is noted: resulting from the ingestion of CLA.
The conditions of data set [2]: co-administration of piper nigrum extract; double blind studies.

Turning to conjugated linoleic acid [CLA], the “reduction in body fat” value in data set [1] was at most 20%.
Take `COC1=C(OC)C(=O)C(C/C=C(\C)CC/C=C(\C)CC/C=C(\C)CC/C=C(\C)CC/C=C(\C)CC/C=C(\C)CC/C=C(\C)CC/C=C(\C)CC/C=C(\C)CCC=C(C)C)=C(C)C1=O` [coenzyme Q10]: in data set [2], the bioavailability entry is on record as “significantly increased”.
